# Measured values taken from PubChem BioAssay (NCI).
#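 Tested at 5 concentrations; 48 h exposure; 96-well plates; endpoints linearly interpolated, else capped at highest concentration. GI50 is the concentration that inhibits growth by half. Definition used: TGI = concentration required for complete inhibition of growth.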
# Legend:
# Assay in all cases: NCI-60 cell line screen, 48 h
# HL-60(TB) leukemia = tested on: HL-60(TB) leukemia
# MDA-MB-435 = tested on: MDA-MB-435
# SW-620 colon = tested on: SW-620 colon
# 786-0 renal = tested on: 786-0 renal
# DU-145 prostate = tested on: DU-145 prostate
# MCF7 breast = tested on: MCF7 breast
# HCC-2998 colon = tested on: HCC-2998 colon
# SF-539 CNS = tested on: SF-539 CNS
# KM12 colon = tested on: KM12 colon
# HT29 colon = tested on: HT29 colon
# HOP-62 NSCLC = tested on: HOP-62 NSCLC
# NCI-H23 lung = tested on: NCI-H23 lung
# SK-MEL-5 melanoma = tested on: SK-MEL-5 melanoma
# HS 578T breast = tested on: HS 578T breast
# SN12C renal = tested on: SN12C renal
# SK-MEL-2 melanoma = tested on: SK-MEL-2 melanoma
# EKVX NSCLC = tested on: EKVX NSCLC
# NCI/ADR-RES ovarian = tested on: NCI/ADR-RES ovarian
# MOLT-4 leukemia = tested on: MOLT-4 leukemia
# K-562 leukemia = tested on: K-562 leukemia
# OVCAR-4 ovarian = tested on: OVCAR-4 ovarian
# SR leukemia = tested on: SR leukemia
# RPMI-8226 leukemia = tested on: RPMI-8226 leukemia
# SF-268 CNS = tested on: SF-268 CNS
# SK-MEL-28 melanoma = tested on: SK-MEL-28 melanoma
# A498 renal = tested on: A498 renal
# BT-549 breast = tested on: BT-549 breast
# OVCAR-8 ovarian = tested on: OVCAR-8 ovarian
# ACHN renal = tested on: ACHN renal
# MDA-MB-231 breast = tested on: MDA-MB-231 breast
# MALME-3M melanoma = tested on: MALME-3M melanoma
# HCT-116 colon = tested on: HCT-116 colon
# HOP-92 NSCLC = tested on: HOP-92 NSCLC
# RXF 393 renal = tested on: RXF 393 renal
# T-47D breast = tested on: T-47D breast
# SF-295 CNS = tested on: SF-295 CNS
# LOX IMVI melanoma = tested on: LOX IMVI melanoma
# UACC-62 melanoma = tested on: UACC-62 melanoma
# CAKI-1 renal = tested on: CAKI-1 renal
# PC-3 prostate = tested on: PC-3 prostate
# COLO 205 colon = tested on: COLO 205 colon
# TK-10 renal = tested on: TK-10 renal
# OVCAR-3 ovarian = tested on: OVCAR-3 ovarian
# HCT-15 colon = tested on: HCT-15 colon
# SK-OV-3 ovarian = tested on: SK-OV-3 ovarian
# NCI-H460 lung = tested on: NCI-H460 lung
# NCI-H226 lung = tested on: NCI-H226 lung
# OVCAR-5 ovarian = tested on: OVCAR-5 ovarian
# M14 melanoma = tested on: M14 melanoma
# A549 NSCLC = tested on: A549 NSCLC
# SNB-75 CNS = tested on: SNB-75 CNS
# NCI-H522 lung = tested on: NCI-H522 lung
# SNB-19 CNS = tested on: SNB-19 CNS
# UACC-257 melanoma = tested on: UACC-257 melanoma
# UO-31 renal = tested on: UO-31 renal
# CCRF-CEM leukemia = tested on: CCRF-CEM leukemia
smiles,measurement,setting,value
O=C1c2ccccc2-c2c1c1ccccc1c(=O)n2CCCCNCCCn1c2c(c3ccccc3c1=O)C(=O)c1ccccc1-2,GI50,HL-60(TB) leukemia,8190 nM
same,TGI,HL-60(TB) leukemia,23300 nM
same,GI50,MDA-MB-435,851 nM
same,TGI,MDA-MB-435,4320 nM
same,GI50,SW-620 colon,22 nM
same,TGI,SW-620 colon,528 nM
same,GI50,786-0 renal,31.8 nM
same,TGI,786-0 renal,699 nM
same,GI50,DU-145 prostate,379 nM
same,TGI,DU-145 prostate,1120 nM
same,GI50,MCF7 breast,345 nM
same,TGI,MCF7 breast,6250 nM
same,GI50,HCC-2998 colon,698 nM
same,TGI,HCC-2998 colon,1400 nM
same,GI50,SF-539 CNS,492 nM
same,TGI,SF-539 CNS,2070 nM
same,GI50,KM12 colon,310 nM
same,TGI,KM12 colon,2450 nM
same,GI50,HT29 colon,92.9 nM
same,TGI,HT29 colon,8950 nM
same,GI50,HOP-62 NSCLC,130 nM
same,TGI,HOP-62 NSCLC,1420 nM
same,GI50,NCI-H23 lung,461 nM
same,TGI,NCI-H23 lung,2530 nM
same,GI50,SK-MEL-5 melanoma,529 nM
same,TGI,SK-MEL-5 melanoma,1490 nM
same,GI50,HS 578T breast,822 nM
same,TGI,HS 578T breast,16000 nM
same,GI50,SN12C renal,158 nM
same,TGI,SN12C renal,1130 nM
same,GI50,SK-MEL-2 melanoma,3510 nM
same,TGI,SK-MEL-2 melanoma,15200 nM
same,GI50,EKVX NSCLC,782 nM
same,TGI,EKVX NSCLC,1750 nM
same,GI50,NCI/ADR-RES ovarian,582 nM
same,TGI,NCI/ADR-RES ovarian,1720 nM
same,GI50,MOLT-4 leukemia,16 nM
same,TGI,MOLT-4 leukemia,452 nM
same,GI50,K-562 leukemia,205 nM
same,TGI,K-562 leukemia,9620 nM
same,GI50,OVCAR-4 ovarian,683 nM
same,TGI,OVCAR-4 ovarian,15500 nM
same,GI50,SR leukemia,5 nM
same,TGI,SR leukemia,27.3 nM
same,GI50,RPMI-8226 leukemia,19.3 nM
same,TGI,RPMI-8226 leukemia,755 nM
same,GI50,SF-268 CNS,358 nM
same,TGI,SF-268 CNS,6930 nM
same,GI50,SK-MEL-28 melanoma,2950 nM
same,TGI,SK-MEL-28 melanoma,34800 nM
same,GI50,A498 renal,1490 nM
same,TGI,A498 renal,5640 nM
same,GI50,BT-549 breast,1340 nM
same,TGI,BT-549 breast,4150 nM
same,GI50,OVCAR-8 ovarian,256 nM
same,TGI,OVCAR-8 ovarian,1500 nM
same,GI50,ACHN renal,41.6 nM
same,TGI,ACHN renal,2310 nM
same,GI50,MDA-MB-231 breast,319 nM
same,TGI,MDA-MB-231 breast,1340 nM
same,GI50,MALME-3M melanoma,1410 nM
same,TGI,MALME-3M melanoma,6030 nM
same,GI50,HCT-116 colon,9.48 nM
same,TGI,HCT-116 colon,688 nM
same,GI50,HOP-92 NSCLC,994 nM
same,TGI,HOP-92 NSCLC,3450 nM
same,GI50,RXF 393 renal,330 nM
same,TGI,RXF 393 renal,7080 nM
same,GI50,T-47D breast,1320 nM
same,TGI,T-47D breast,4860 nM
same,GI50,SF-295 CNS,270 nM
same,TGI,SF-295 CNS,2330 nM
same,GI50,LOX IMVI melanoma,49.9 nM
same,TGI,LOX IMVI melanoma,760 nM
same,GI50,UACC-62 melanoma,445 nM
same,TGI,UACC-62 melanoma,3220 nM
same,GI50,CAKI-1 renal,710 nM
same,TGI,CAKI-1 renal,4210 nM
same,GI50,PC-3 prostate,245 nM
same,TGI,PC-3 prostate,1050 nM
same,GI50,COLO 205 colon,1510 nM
same,TGI,COLO 205 colon,12700 nM
same,GI50,TK-10 renal,887 nM
same,TGI,TK-10 renal,4320 nM
same,GI50,OVCAR-3 ovarian,509 nM
same,TGI,OVCAR-3 ovarian,2060 nM
same,GI50,HCT-15 colon,143 nM
same,TGI,HCT-15 colon,624 nM
same,GI50,SK-OV-3 ovarian,5350 nM
same,TGI,SK-OV-3 ovarian,50000 nM
same,GI50,NCI-H460 lung,48.4 nM
same,TGI,NCI-H460 lung,687 nM
same,GI50,NCI-H226 lung,375 nM
same,TGI,NCI-H226 lung,3110 nM
same,GI50,OVCAR-5 ovarian,676 nM
same,TGI,OVCAR-5 ovarian,1540 nM
same,GI50,M14 melanoma,760 nM
same,TGI,M14 melanoma,4180 nM
same,GI50,A549 NSCLC,508 nM
same,TGI,A549 NSCLC,2900 nM
same,GI50,SNB-75 CNS,6450 nM
same,TGI,SNB-75 CNS,28300 nM
same,GI50,NCI-H522 lung,361 nM
same,TGI,NCI-H522 lung,6390 nM
same,GI50,SNB-19 CNS,510 nM
same,TGI,SNB-19 CNS,10400 nM
same,GI50,UACC-257 melanoma,3230 nM
same,TGI,UACC-257 melanoma,13800 nM
same,GI50,UO-31 renal,55.7 nM
same,TGI,UO-31 renal,7230 nM
CN=C(N)N/N=C(\C)c1ccc2c(c1)Cc1cc(/C(C)=N/NC(N)=NC)ccc1-2,GI50,SW-620 colon,2360 nM
same,TGI,SW-620 colon,6190 nM
same,GI50,786-0 renal,752 nM
same,TGI,786-0 renal,> 100000 nM
same,GI50,HT29 colon,2130 nM
same,TGI,HT29 colon,> 20800 nM
same,GI50,HOP-62 NSCLC,668 nM
same,TGI,HOP-62 NSCLC,> 100000 nM
same,GI50,HS 578T breast,725 nM
same,TGI,HS 578T breast,3760 nM
same,GI50,SN12C renal,254 nM
same,TGI,SN12C renal,781 nM
same,GI50,NCI/ADR-RES ovarian,10900 nM
same,TGI,NCI/ADR-RES ovarian,> 100000 nM
same,GI50,MOLT-4 leukemia,422 nM
same,TGI,MOLT-4 leukemia,> 100000 nM
same,GI50,SR leukemia,1810 nM
same,TGI,SR leukemia,> 100000 nM
same,GI50,BT-549 breast,1960 nM
same,TGI,BT-549 breast,5620 nM
same,GI50,HCT-116 colon,2360 nM
same,TGI,HCT-116 colon,> 100000 nM
same,GI50,HOP-92 NSCLC,1330 nM
same,TGI,HOP-92 NSCLC,6150 nM
same,GI50,T-47D breast,2020 nM
same,TGI,T-47D breast,5470 nM
same,GI50,UACC-62 melanoma,2480 nM
same,TGI,UACC-62 melanoma,> 100000 nM
same,GI50,CAKI-1 renal,2070 nM
same,TGI,CAKI-1 renal,5370 nM
same,GI50,PC-3 prostate,2130 nM
same,TGI,PC-3 prostate,5800 nM
same,GI50,TK-10 renal,2320 nM
same,TGI,TK-10 renal,7090 nM
same,GI50,HCT-15 colon,2040 nM
same,TGI,HCT-15 colon,> 100000 nM
same,GI50,CCRF-CEM leukemia,444 nM
same,TGI,CCRF-CEM leukemia,> 100000 nM
same,GI50,UACC-257 melanoma,3230 nM
same,TGI,UACC-257 melanoma,> 100000 nM
